The values below come from patent US4900729A, “Thieno-1,4-diazepines” (Boehringer Ingelheim KG, priority 1986, dated 1990).

pIC50: −log10 of the molar value.

Tested on in the first series: not given
Test: not given
The conditions noted are these: commercially available tranquillisers or hypnotics; cited from earlier work.
Consider `Cc1nnc2n1-c1ccc(Cl)cc1C(c1ccccc1Cl)=NC2` [Triazolam, triazolam, reference compound], for which the “sedative effect of known benzodiazepines” value is given as “marked sedative effect”.

For another series, the system named is human thrombocytes (PAF-induced aggregation). The series is described as follows: inhibition of PAF-induced aggregation of human thrombocytes in vitro. In kind it is cell-based. The settings on record: Homo sapiens, PAF-induced aggregation, read-out: IC50 (concentration for a 50% inhibition of aggregation). The procedure:
The PAF-antagonistic activity of some compounds of formula I was investigated by means of the inhibition of blood platelet aggregation in vitro and the antagonising of the PAF-induced bronchoconstriction in anaesthetised guinea pigs, the lowering of blood pressure in anaesthetised rats and skin wheals in rats. Moreover, these compounds were tested for any possible side effects on the central nervous system.
1. In vitro tests: inhibition of blood platelet aggregation
In order to determine the PAF-antagonistic activity of substances, the PAF-induced aggregation of human thrombocytes in vitro was used. In order to obtain thrombocyte-rich plasma (TRP) blood was taken from an unconstricted vein using a plastic syringe containing 3.8% of sodium citrate solution. The ratio of sodium citrate solution to blood was 1:9. After careful mixing, the citrated blood was centrifuged for 20 minutes at 150×g (1200 rpm). The thrombocyte aggregation was measured using the method developed by Born and Cross (G. V. R. Born and M. J. Cross, J. Physiol. 168, 178 (1963)), in which PAF is added to the TRP with constant stirring in order to initiate aggregation.
The test substance is added 2 to 3 minutes before aggregation is induced, in a volume of 10 μl. The solvent used is either distilled water, ethanol and/or dimethylsulphoxide. The controls were given corresponding volumes of this solvent. After the initial absorption had been recorded (2 to 3 minutes) aggregation was induced with PAF (5×10^-8 M).
The maximum of the first aggregation wave is used to assess the effects of the substance. The PAF-induced maximum absorption rate (=maximum aggregation×100%) is simultaneously tested in a parallel mixture (=control mixture in one of the channels of the 2-channel aggregometer) with each test batch (second channel) and is used as the 100% value.
The level of aggregation achieved under the effect of the […] is given […].
Each test substance is tested at concentrations of from 10^-3 to 10^-8 M with a random sampling range of n=4 in order to investigate an inhibiting effect on the PAF-induced thrombocyte aggregation. A concentration-activity curve is then plotted using 3 concentrations and the IC50 is determined (concentration for a 50% inhibition of aggregation). The IC values of compounds of general formula I are generally around levels of less than 9 μM.
For the molecule `Cc1nnc2n1-c1ccc(Cl)cc1C(c1ccccc1Cl)=NC2` [Triazolam, triazolam, reference compound], the pIC50 is 5.05.

The series is the same for the next values; noted with them: PAF-induced aggregation, read-out: IC50 (concentration for a 50% inhibition of aggregation).
`Cc1nnc2n1-c1ccc(Cl)cc1C(c1ccccc1)=NC2` [Alprazolam, alprazolam, reference compound]: the pIC50 was 4.85.

The series is the same for the next values; noted with them: Platelet, Table A, PAF 5×10^-8 M, human thrombocyte-rich plasma, read-out: IC50 (inhibition of blood platelets).
As for `Cc1nnc2n1-c1sc(CCCCCCCOS(C)(=O)=O)cc1C(c1ccccc1Cl)=NC2` [Example 23], the pIC50 is 6.05. For `Cc1nnc2n1-c1sc(CCCN3CCOCC3)cc1C(c1ccccc1Cl)NC2` (stereo not shown) [Example 14l, 2-[3-(N-Morpholinyl)-n-propyl]-4-(2-chlorophenyl)-9-methyl-4,5-dihydro-6H-thieno[3,2-f][1,2,4]triazolo-[4,3-a][1,4]diazepine], the pIC50 was 6.22.

Regarding `CC(=O)OCCCCCCCc1cc2c(s1)-n1c(C)cnc1CN=C2c1ccccc1Cl` [Example 58], the pIC50 is greater than 6.70. On the same count and under the same terms, the figure for `Cc1nnc2n1-c1sc(CCCN3CCCCC3)cc1C(c1ccccc1Cl)=NC2` [Example 45] is 6.52. Consider `Cc1nnc2n1-c1ccc(Cl)cc1C(c1ccccc1Cl)=NC2` [Triazolam, triazolam, reference compound], for which the pIC50 was 5.05.

Consider `Cc1nnc2n1-c1sc(CCCCCCCNCCN(C)C)cc1C(c1ccccc1Cl)=NC2` [Example 60], for which the pIC50 is 6.05. Turning to `Cc1nnc2n1-c1sc(CCCOC(=O)C(C)(C)C)cc1C(c1ccccc1Cl)=NC2` [Example 25], the pIC50 is 6.05. As to `Cc1nnc2n1-c1sc(CCCCCCCN)cc1C(c1ccccc1Cl)=NC2` [Example 9, 2-(7-Amino-heptyl)-4-(2-chlorophenyl)-9-methyl-6H-thieno[3,2-f][1,2,4]triazolo[4,3-a][1,4]diazepine], the pIC50 is 6.70. With `CC(=O)NCCCCCCCc1cc2c(s1)-n1c(C)nnc1CN=C2c1ccccc1Cl` [Example 10, 2-(7-Acetylaminoheptyl)-4-(2-chlorophenyl)-9-methyl-6H-thieno[3,2-f][1,2,4]triazolo[4,3-a][1,4]diazepine], the pIC50 is 5.77.

Consider `Cc1nnc2n1-c1sc(CCCO)cc1C(c1ccccc1Cl)NC2` (stereo not shown) [Example 98], for which the pIC50 was 5.64. Turning to `CC(=O)OCCCc1cc2c(s1)-n1cnnc1CN=C2c1ccccc1Cl` [Example 50], the pIC50 was 6.22.

With `Cc1nnc2n1-c1sc(CCCCCCCN3CCN(C)CC3)cc1C(c1ccccc1Cl)=NC2` [Example 49], the pIC50 is 6.00.

As for `Cc1nnc2n1-c1sc(CC(C)C(=O)N3CCOCC3)cc1C(c1ccccc1Cl)=NC2` (stereo not shown) [Example 14i, 2-[2-(Morpholin-4-yl-carbonyl)-n-propyl]-4-(2-chlorophenyl)-9-methyl-6H-thieno[3,2-f][1,2,4]triazolo[4,3-a][1,4]diazepine], the pIC50 is 6.40. The same measure, in the same setting: under `Cc1nnc2n1-c1sc(CCCCCCCOC(=O)C(C)(C)C)cc1C(c1ccccc1Cl)=NC2` [Example 27] stands 6.70.

Regarding `CC(=O)OCCCCCCCc1cc2c(s1)-n1c(C)nnc1CN=C2c1ccccc1Cl` [Example 4, 7-[4-(2-Chlorophenyl)-9-methyl-6H-thieno[3,2-f][1,2,4]triazolo[4,3-a][1,4]diazepin-2-yl]heptyl acetate], the pIC50 was greater than 6.70. On the same count and under the same terms, the figure for `CC(=O)OCCCc1cc2c(s1)-n1c(C)cnc1CN=C2c1ccccc1Cl` [Example 56] is 6.52; for `Cc1nnc2n1-c1sc(CCS(=O)(=O)N3CCOCC3)cc1C(c1ccccc1Cl)=NC2` [Example 20] it is 6.52; for `Cc1nnc2n1-c1sc(CCCn3cncn3)cc1C(c1ccccc1Cl)=NC2` [Example 64] it is greater than 6.70.

Consider `Cc1nnc2n1-c1sc(CCCCCCCN3C(=O)c4ccccc4C3=O)cc1C(c1ccccc1Cl)=NC2` [Example 8, 2-(7-N-Phthalimidoheptyl)-4-(2-chlorophenyl)-9-methyl-6H-thieno[3,2-f][1,2,4]triazolo[4,3-a][1,4]-diazepine], for which the pIC50 was greater than 6.52. In the case of `Cc1nnc2n1-c1sc(CCCCCCC=O)cc1C(c1ccccc1Cl)=NC2` [Example 12, 2-(6-Formylhexyl)-4-(2-chlorophenyl)-9-methyl-6H-thieno[3,2-f][1,2,4]triazolo[4,3-a][1,4]diazepine], the pIC50 was 6.52. Same read-out and setting: under `CC(=O)OCCCc1cc2c(s1)-n1c(C)nnc1CN=C2c1ccccc1Cl` [Example 2, 3-[4-(2-Chlorophenyl)-9-methyl-6H-thieno[3,2-f][1,2,4]triazolo[4,3-a][1,4]diazepin-2-yl]propyl acetate] stands greater than 6.70.

With `Cc1nnc2n1-c1sc(CCCN3CCOCC3)cc1C(c1ccccc1Cl)=NC2` [Example 11, 2-(3-(N-Morpholinyl)propyl)-4-(2-chlorophenyl)-9-methyl-6H-thieno[3,2-f][1,2,4]triazolo[4,3-a][1.4]-diazepine], the pIC50 is greater than 6.70. In the case of `Cc1nnc2n1-c1sc(CCCN3CCOCC3)cc1C(c1ccccc1)=NC2` [Example 54], the pIC50 is 5.96. On the same count and under the same terms, under `Cc1nnc2n1-c1sc(CCCNCCN3CCOCC3)cc1C(c1ccccc1Cl)=NC2` [Example 75] stands 5.72.

As for `Cc1nnc2n1-c1sc(CCS(=O)(=O)N3CCN(C)CC3)cc1C(c1ccccc1Cl)=NC2` [Example 1, 2-[4-(2-Chlorophenyl)-9-methyl-6H-thieno[3,2-f][1,2,4]triazolo[4,3-a][1,4]diazepin-2-yl]-ethane-1-sulphonic acid-N'-methylpiperazide], the pIC50 was 6.52. Still for that read-out and setting: under `CCN(CC)CCCc1cc2c(s1)-n1c(C)nnc1CN=C2c1ccccc1Cl` [Example 71] stands 6.05; under `CC(=O)OCCCc1cc2c(s1)-n1c(Br)nnc1CN=C2c1ccccc1Cl` [Example 13, 2-(3-Acetoxypropyl)-4-(2-chlorophenyl)-9-bromo-6H-thieno[3,2-f][1,2,4]triazolo[4,3-a][1,4]diazepine], 6.52.

Still in this series, the particulars now being: Table A, PAF 5×10^-8 M, human thrombocyte-rich plasma, read-out: IC50 (inhibition of blood platelets).
With `Cc1nnc2n1-c1ccc(Cl)cc1C(c1ccccc1)=NC2` [Alprazolam, alprazolam, reference compound], the pIC50 is 4.85.
